Where two headings read alike, the source gives them in different places.
Tests used:
ASIC1a [1] = target: T1, ASIC1a (Homo sapiens, UniProt P78348); assay: Calcium-imaging (FLIPR) of MES-induced calcium response in ASIC1a expressing HEK293 cells; assay type: cell-based; design: host or cells: HEK293
T1 sequence (P78348 1-528): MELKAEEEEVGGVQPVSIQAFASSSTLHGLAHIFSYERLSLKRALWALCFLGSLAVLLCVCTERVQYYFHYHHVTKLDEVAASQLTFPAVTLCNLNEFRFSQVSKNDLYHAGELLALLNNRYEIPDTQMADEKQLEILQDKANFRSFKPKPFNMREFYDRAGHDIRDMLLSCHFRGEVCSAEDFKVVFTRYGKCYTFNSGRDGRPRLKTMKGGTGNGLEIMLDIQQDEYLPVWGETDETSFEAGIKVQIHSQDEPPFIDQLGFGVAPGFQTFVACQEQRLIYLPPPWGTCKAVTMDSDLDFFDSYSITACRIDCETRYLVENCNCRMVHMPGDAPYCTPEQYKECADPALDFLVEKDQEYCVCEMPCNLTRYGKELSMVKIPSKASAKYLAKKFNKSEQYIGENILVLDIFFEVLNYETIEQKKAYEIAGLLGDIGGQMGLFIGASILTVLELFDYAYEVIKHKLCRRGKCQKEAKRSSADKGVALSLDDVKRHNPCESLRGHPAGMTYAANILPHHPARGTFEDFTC
Experimental: Identification of ASIC Antagonists Using Calcium-Imaging
ASIC1a expressing HEK293 cells are grown in culture medium (DMEM with 10% FBS), in polystyrene culture flasks (175 mm 2) at 37° C. in a humidified atmosphere of 5% CO2. Confluency of cells should be 80-90% on day of plating. Cells are rinsed with 10 ml of PBS and cells are re-suspended by addition of culture medium and trituration with a 25 ml pipette.
The cells are seeded at a density of approximately 1×10^6 cells/ml (100 μl/well) in black-walled, clear bottom, 96-well plates pre-treated with 10 mg/l poly-D-lysin (75 μl/well for ≧30 min). Plated cells are allowed to proliferate for 24 h before loading with dye.
Loading with Fluorescent Calcium Dye Fluo-4/AM
Fluo-4/AM (1 mg, Molecular Probes) is dissolved in 912 μl DMSO. The Fluo-4/AM stock solution (1 mM) is diluted with culture medium to a final concentration of 2 μM (loading solution).
The culture medium is aspirated from the wells, and 50 μl of the Fluo-4/AM loading solution is added to each well. The cells are incubated at 37° C. for 30 min.
After the loading period, the loading solution is aspirated and the cells are washed twice with 100 μl modified Assay Buffer (145 mM NaCl, 5 mM KCl, 5 mM CaCl2, 1 mM MgCl2, 10 mM HEPES, pH 7.4) to remove extracellular dye. Following the second wash, 100 μl modified Assay Buffer is added to each well and the fluorescence is measured in FLIPR™ or FlexStation™ (Molecular Devices, USA), or any other suitable equipment known to the skilled in the art.
Temperature: Room temperature (20-22° C.)
First addition: 50 μl test solution at a rate of 30 μl/sec and a starting height of […]
Second addition: 50 μl MES solution (20 mM, 5 mM final concentration) at a rate of 35 μl/sec and a starting height of 150 μl.
Reading intervals: pre-incubation—10 sec×7 and 3 sec×3 antagonist phase—3 sec×17 and 10 sec×12
Addition plates (compound test plate and MES plate) are placed on the right and left positions in the FLIPR tray, respectively. Cell plates are placed in the middle position and the ASIC1a program is effectuated. FLIPR will then take the appropriate measurements in accordance with the interval settings above. Fluorescence obtained after stimulation is corrected for the mean basal fluorescence (in modified Assay Buffer).
Hit Confirmation and Characterization of Active Substances
The MES-induced peak calcium response, in the presence of test substance, is expressed relatively to the MES response alone. Test substances that block the MES-induced calcium response are re-tested in triplicates. […]

ASIC1a [2] = target: T1, ASIC1a; assay: Two-electrode voltage clamp of acid-induced currents in Xenopus laevis oocytes; assay type: cell-based; design: expressed in transfected cells; host or cells: Xenopus laevis oocytes, nuclear microinjection of an expression vector such as pCDNA3; conditions: 50 μM, Xenopus oocytes; read-out: % inh. at 50 μM (Xo)
Experimental: Screening and Bioanalysis of ASIC Antagonists in Xenopus laevis oocytes
This example describes the in vitro assessment of the activity of the compounds of the present invention.
Two-electrode voltage clamp electrophysiological assays in Xenopus laevis oocytes expressing gated ion channels are performed as follows:
Oocytes are surgically removed from adult Xenopus laevis and treated for 2 h at room temperature with 1 mg/ml type I collagenase (Sigma) in Barth's solution under mild agitation. Selected oocytes at stage IV-V are defolliculated manually before nuclear microinjection of 2.5-5 ng of a suitable expression vector, such as pCDNA3, comprising the nucleotide sequence encoding a gated ion channel subunit protein. In such an experiment, the oocytes express homomultimeric proton-gated ion channels on their surface. In an alternate experiment, one, two, three or more vectors comprising the coding sequences for distinct gated ion channel subunits are co-injected in the oocyte nuclei. In the latter case, oocytes express heteromultimeric proton-gated ion channels. For example, ASIC2a and/or ASIC3 subunits in pcDNA3 vector are co-injected at a 1:1 cDNA ratio. After 2-4 days of expression at 19° C. in Barth's solution containing […] gentamicin and 1.8 mM CaCl2, gated ion channels are activated by applying an acidic solution (pH<7) and currents are recorded in a two electrode voltage-clamp configuration, using an OC-725B amplifier (Warner Instruments). Currents are acquired and digitized at 500 Hz on an Apple Imac G3 computer with an A/D NB-MIO-16XL interface (National Instruments) and recorded traces are post-filtered at 100 Hz in Axograph (Axon Instruments) (Neher, E. and Sakmann, B. (1976) Nature 260:799-802). Once impaled with the microelectrodes, oocytes are continuously superfused at 10-12 ml/min with a modified Ringer's solution containing 97 mM NaCl, 2 mM KCl, 1.8 mM CaCl2, and 10 mM HEPES brought to pH 7.4 with NaOH (Control Ringer). Test Ringer solution is prepared by replacing HEPES with MES and adjusting the pH to the desired acidic value. Compounds of the present invention are prepared in both the Control and Test Ringer solutions and applied to oocytes at room temperature through a computer-controlled switching valve system. Osmolarity of all solutions is adjusted to 235 mOsm with choline chloride. Similarly, recordings can also be acquired in an automated multichannel oocytes system as the OpusExpress™ (Molecular Devices, Sunnyvale, USA).
FIGS. 1A and 2A illustrate the inhibitory effects of Compounds 12 and 44 on acid-induced activation of recombinant homomeric hASIC1a channels. FIGS. 1A and 2A show the dose-dependent inhibition of the acid-induced hASIC1a currents recorded from Xenopus laevis oocytes using the two-electrode voltage clamp method (as described in this example) in the absence or presence of increasing concentration of the compounds.

[3] = MES-induced calcium response, ASIC1a expressing HEK293 cells, read-out: IC50 (FLIPR)

| SMILES | IC50 (ASIC1a [1]; [3]) | inhibition at 50 µM (ASIC1a [2]) | IC50 (ASIC1a [1]) |
| --- | --- | --- | --- |
| CCN1CCc2c(-c3ccccc3OC)cc(C#N)c(N)c2C1 [Compound 45] | 10 to 20 µM | > 50% | – |
| CCN1CCc2c(-c3cc(C)cc(C)c3)cc(C#N)c(N)c2C1 [Compound 48] | – | > 50% | < 10 µM |
| CCN1CCc2c(-c3ccccc3)cc(C#N)c(N(C)C)c2C1 [Compound 50] | 10 to 20 µM | > 50% | – |

From patent US20080004282A1, “Compositions and methods for modulating gated ion channels” (PainCeptor Pharma Corporation, priority 2006, published 2008)
